Laboratory results: US4786638A, “2,4-disubstituted-5-cyano-1,6-dihydro-6-oxo-1-pyrimidineacetic acid aldose reductase inhibitors” (American Home Products Corporation, priority 1987, dated 1988)
Read-outs that look alike come from different tables or passages of the source.

Columns and labels:
[1] = tested on: galactitol accumulation in the tissues of the lens, sciatic nerve, and diaphragm; test: Galactosemic rats: lowering of dulcitol (galactitol) accumulation in lens, sciatic nerve and diaphragm; assay type: in vivo, Male Sprague-Dawley rats; settings: for % Lowering dulcitol accumulation IN VIVO, D: diaphragm
Description: Such experiments are exemplified hereinbelow after the listing of the following general comments pertaining to these experiments:
Male Sprague-Dawley rats, weighing approximately 90 grams were separated into groups of equal average body weight, with six animals per group. The animals were housed in cages of six animals each and maintained on 12 hour night/12 hour day cycles. Except as otherwise noted, the animals were given food and water ad libitum.
On day 1, the galactosemic control group and all drug-treated groups were given access to 20% galactose chow (Bio-Serv, Frenchtown, N.J.). Animals in the control group were given access to 20% glucose chow (Bio-Serv). Test compounds were administered either in the diet or by gavage as a suspension in 2% Tween 80 in saline. In experiments in which gavage dosing was used, the animals were administered the test compound daily at approximately the same hour each day. Food intake and body weight were determined twice during the course of the experiment. In cases in which the compound was administered in the diet, the average dose was calculated on the basis of the actual average food intake during the experiment.
On the morning of day 5, all animals were fasted; beginning two hours later the animals were decapitated and the lenses, sciatic nerves, and a 50-100 mg portion of the diaphragm were removed, weighed, and frozen in porcelain plates on dry ice.
Only two minor reagent changes were made: (a) the rinsing mixture was an aqueous 5% (w/v) trichloroacetic acid solution and (b) the stock solution was prepared by dissolving 25 mg of dulcitol in 100 mL of an aqueous trichloroacetic acid solution [N.B.: For each experiment the average value found in the tissue from rats fed the glucose diet was subtracted from the individual values found in the corresponding tissue in galactose-fed rats to obtain the amount of polyol accumulated.]
The figures under L, N and D represent the percentage decrease of galactitol accumulation in the tissues of the lens, sciatic nerve, and diaphragm, respectively for treated rats as compared to untreated rats.

aldose reductase [2] = biological target: T1, aldose reductase (Bos taurus, UniProt P16116); test: In vitro aldose reductase inhibition (modified Hayman and Kinoshita procedure; enzyme from bovine lens); assay type: biochemical; settings: for inhibition at 10 µM: read-out: % Inhibition IN VITRO 10^-5 M; for inhibition at 1 µM: read-out: % Inhibition IN VITRO 10^-6 M; for inhibition at 0.1 µM: read-out: % Inhibition IN VITRO 10^-7 M
T1 construct: preparation of the enzyme from bovine lens; from tissue; host or cells: bovine lens
Excerpt: In the present case the procedure of Hayman and Kinoshita was modified in that the final chromatography step was omitted in the preparation of the enzyme from bovine lens.

aldose reductase [3] = settings: reported by K. Sestanj et al., U.S. Pat. No. 4,568,693; cited from earlier work
[4] = 20% galactose diet, mg/kg by Example: 1:90, 2:128, 3:141, 4:93, 5:121, 6:110, 7:123, 8:87, 9:92, 10:102, 11:71, 12:84, 13:93, 14:112, 16:100, 17:100, 18:128, 19:117, 20:140, 21:103, 22:151, tolrestat:6
[5] = lens, 20% galactose diet, mg/kg by Example: 1:90, 2:128, 3:141, 4:93, 5:121, 6:110, 7:123, 8:87, 9:92, 10:102, 11:71, 12:84, 13:93, 14:112, 16:100, 17:100, 18:128, 19:117, 20:140, 21:103, 22:151, tolrestat:6

Row | inhibition at 10 µM (aldose reductase [2]) | inhibition at 1 µM (aldose reductase [2]) | inhibition at 0.1 µM (aldose reductase [2]) | Structure (SMILES) | % Lowering dulcitol accumulation IN VIVO, D [1, 4] | % Lowering dulcitol accumulation IN VIVO, L [1, 5] | % Lowering dulcitol accumulation IN VIVO, D ([1]; 98 mg/kg) | % Lowering dulcitol accumulation IN VIVO, D ([1]; 196 mg/kg) | % Lowering dulcitol accumulation IN VIVO, L ([1]; lens, 98 mg/kg) | % Lowering dulcitol accumulation IN VIVO, L ([1]; lens, 196 mg/kg) | % Lowering dulcitol accumulation IN VIVO, L [1] | inhibitor of aldose reductase (in words) (aldose reductase [3])
1 | 97% | 96% | 91% | N#Cc1c(SCc2ccccc2)nc(C2CCCCC2)n(CC(=O)O)c1=O [Example 2] | N.S. | N.S. |  |  |  |  |  | 
2 | 96% | 97% | 91% | CC(C)Sc1nc(C(C)C)n(CC(=O)O)c(=O)c1C#N [Example 9] | 16% | N.S. |  |  |  |  |  | 
3 | 93% | 92% | 90% | CC(C)Sc1nc(C2CCCCC2)n(CC(=O)O)c(=O)c1C#N [Example 6] | N.S. | N.S. |  |  |  |  |  | 
4 | 94% | 95% | 96% | CCCCCCSc1nc(C2CCCCC2)n(CC(=O)O)c(=O)c1C#N [Example 5] | N.S. | N.S. |  |  |  |  |  | 
5 | 92% | 89% | 64% | Cc1nc(N2CCN(Cc3ccccc3)CC2)c(C#N)c(=O)n1CC(=O)O [Example 14] | N.S. | N.S. |  |  |  |  |  | 
6 | 96% | 96% | 93% | N#Cc1c(SCc2ccc(Br)cc2)nc(C2CCCCC2)n(CC(=O)O)c1=O [Example 3] | N.S. | N.S. |  |  |  |  |  | 
7 | 82% | 71% | 22% | N#Cc1c(-c2ccccc2)nc(-c2cccc3c(Br)cccc23)n(CC(=O)O)c1=O [Example 20, 5-Cyano-1,6-dihydro-2-(5-bromo-1-naphthalenyl)-6-oxo-4-phenyl-1-pyrimidineacetic Acid] | N.S. | N.S. |  |  |  |  |  | 
8 | 86% | 84% | 74% | CSc1nc(C)n(CC(=O)O)c(=O)c1C#N [Example 11, 5-Cyano-1,6-dihydro-2-methyl-4-(methylthio)-6-oxo-1-pyrimidineacetic Acid] | N.S. | N.S. |  |  |  |  |  | 
9 | 89% | 88% | 71% | Cc1nc(NCCc2ccccc2)c(C#N)c(=O)n1CC(=O)O [Example 15] |  |  | N.S. | N.S. | N.S. | N.S. |  | 
10 | 96% | 98% | 94% | CC(C)c1nc(SCc2ccccc2)c(C#N)c(=O)n1CC(=O)O [Example 10] | 38% | N.S. |  |  |  |  |  | 
11 | 90% | 88% | 81% | Cc1nc(N2CCC(Cc3ccccc3)CC2)c(C#N)c(=O)n1CC(=O)O [Example 18] | N.S. | N.S. |  |  |  |  |  | 
12 |  |  |  | CSc1nc(C2CCCCC2)n(CC(=O)O)c(=O)c1C#N [Example 1, 5-Cyano-2-cyclohexyl-1,6-dihydro-4-(methylthio)-6-oxo-1-pyrimidineacetic Acid] | 42% |  |  |  |  |  | N.S. | 
13 | 96% | 96% | 94% | CSc1nc(C(C)C)n(CC(=O)O)c(=O)c1C#N [Example 8] | N.S. | N.S. |  |  |  |  |  | 
14 | 88% | 90% | 30% | Cc1nc(NCc2cccnc2)c(C#N)c(=O)n1CC(=O)O [Example 12, 5-Cyano-1,6-dihydro-2-methyl-6-oxo-4-[(3-pyridinylmethyl)amino]-1-pyrimidineacetic Acid] | N.S. | N.S. |  |  |  |  |  | 
15 |  |  |  | COc1ccc2c(C(=S)N(C)CC(=O)O)cccc2c1C(F)(F)F [tolrestat, N-[[6-methoxy-5-(trifluoromethyl)-1-naphthalenyl]-thioxomethyl]-N-methylglycine, reference compound] | 90% | N.S. |  |  |  |  |  | effective inhibitor of aldose reductase
16 | 87% | 55% | 14% | Cc1nc(-c2cccc3ccccc23)n(CC(=O)O)c(=O)c1C#N [Example 21, 5-cyano-1,6-dihydro-4-methyl-2-(1-naphthalenyl)-6-oxo-1-pyrimidineacetic acid] | N.S. | 18% |  |  |  |  |  | 
17 |  |  |  | N#Cc1c(SCc2ccc(Br)cc2F)nc(C2CCCCC2)n(CC(=O)O)c1=O [Example 4, 4-[[(4-bromo-2-fluorophenyl)methyl]thio]-5-cyano-2-cyclohexyl-1,6-dihydro-6-oxo-1-pyrimidineacetic acid] | N.S. | 15% |  |  |  |  |  | 
18 | 96% | 95% | 90% | N#Cc1c(SCC2CCCCC2)nc(C2CCCCC2)n(CC(=O)O)c1=O [Example 7] | N.S. | N.S. |  |  |  |  |  | 
19 | 96% | 90% | 78% | Cc1nc(NCc2ccccc2)c(C#N)c(=O)n1CC(=O)O [Example 17] | N.S. | N.S. |  |  |  |  |  | 
20 | 88% | 75% | 52% | Cc1nc(N2CCCCC2)c(C#N)c(=O)n1CC(=O)O [Example 13] | N.S. | N.S. |  |  |  |  |  | 
21 | 84% | 68% | 29% | N#Cc1c(-c2ccccc2)nc(-c2cccc3ccccc23)n(CC(=O)O)c1=O [Example 19] | 21% | N.S. |  |  |  |  |  | 
22 | 93% | 91% | 72% | Cc1nc(NCC2CCCCC2)c(C#N)c(=O)n1CC(=O)O [Example 16] | N.S. | N.S. |  |  |  |  |  | 
23 | 93% | 85% | 46% | N#Cc1c(Cc2cccc3ccccc23)nc(-c2cccc3c(Br)cccc23)n(CC(=O)O)c1=O [Example 22] | N.S. | N.S. |  |  |  |  |  | 
